Laboratory results: PubChem BioAssay AID1259411 (Chemical Carcinogenesis Research Information System (CCRIS), 2018)
Activity calls are given as the source filed them. How the calls were made is not given here.

System: rodent carcinogenicity bioassays, tumor incidence
Experiment: CCRIS carcinogenicity studies
Details: Dose: 0, Dose: 0
How it was run: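 Archive of carcinogenicity, mutagenicity, tumor promotion and tumor inhibition results drawn from journals, NCI reports and other sources, expert-reviewed; covers 1985-2011 and is no longer updated.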

CCOP(=S)(OCC)Oc1ccc([N+](=O)[O-])cc1
carcinogen call (Species: MOUSE, Strain/Sex: B6C3F1/FEMALE, Route: ORAL, 80, 160 PPM IN DIET, 80, 160 PPM IN DIET): inactive; negative
carcinogen call (Species: MOUSE, Strain/Sex: B6C3F1/MALE, Route: ORAL, 80, 160 PPM IN DIET, 80, 160 PPM IN DIET): inactive; negative
carcinogen call (Species: RAT, Strain/Sex: OSBORNE-MENDEL/FEMALE, Route: ORAL, 23, 45 PPM IN DIET FOR 80 WK (STUDY DURATION: 112-113 WK), 23, 45 PPM IN DIET FOR 80 WK (STUDY DURATION: 112-113 WK), Tumor Site: Type of Lesion: ADRENAL GLAND: CORTICAL ADENOMA OR CARCINOMA): equivocal
carcinogen call (Species: RAT, Strain/Sex: OSBORNE-MENDEL/MALE, Route: ORAL, 32, 63 PPM IN DIET FOR 80 WK (STUDY DURATION: 112-113 WK), 32, 63 PPM IN DIET FOR 80 WK (STUDY DURATION: 112-113 WK), Tumor Site: Type of Lesion: ADRENAL GLAND: CORTICAL ADENOMA OR CARCINOMA): equivocal

C[C@@H]1O[C@@H](OC[C@H]2O[C@@H](Oc3c(-c4ccc(O)c(O)c4)oc4cc(OS(=O)(=O)O)cc(OS(=O)(=O)O)c4c3=O)[C@H](O)[C@@H](O)[C@@H]2O)[C@H](O)[C@H](O)[C@H]1O
carcinogen call (Species: RAT, Strain/Sex: SPRAGUE-DAWLEY/FEMALE, Route: GAVAGE, 10, 27, 71, 188, 500 MG/KG 3/WK FOR 2 YR (STUDY DURATION: 2 YR), 10, 27, 71, 188, 500 MG/KG 3/WK FOR 2 YR (STUDY DURATION: 2 YR)): inactive; negative
carcinogen call (Species: RAT, Strain/Sex: SPRAGUE-DAWLEY/MALE, Route: GAVAGE, 10, 27, 71, 188, 500 MG/KG 3/WK FOR 2 YR (STUDY DURATION: 2 YR), 10, 27, 71, 188, 500 MG/KG 3/WK FOR 2 YR (STUDY DURATION: 2 YR)): inactive; negative

CO/N=C(/C(=O)OC)c1ccccc1COc1ccccc1C
carcinogen call (Species: Mouse, Strain/Sex: Strain not specified by Department of Pesticide Regulation /Female (50/Group), Route: Oral, 81, 400, 1662 mg/kg/day of 93.7-96.6% kresoxim-methyl in diet for 18 mo, study duration 18 mo, 81, 400, 1662 mg/kg/day of 93.7-96.6% kresoxim-methyl in diet for 18 mo, study duration 18 mo): inactive; negative
carcinogen call (Species: Mouse, Strain/Sex: Strain not specified by Department of Pesticide Regulation /Male (50/Group), Route: Oral, 60, 304, 1305 mg/kg/day of 93.7-96.6% kresoxim-methyl in diet for 18 mo, study duration 18 mo, 60, 304, 1305 mg/kg/day of 93.7-96.6% kresoxim-methyl in diet for 18 mo, study duration 18 mo): inactive; negative
carcinogen call (Species: Rat, Strain/Sex: Wistar/Female (20/Group), Route: Oral, 12, 48, 503, 985 mg/kg/day of 93.7-96.6% kresoxim-methyl in diet for 24 mo, study duration 24 mo, 12, 48, 503, 985 mg/kg/day of 93.7-96.6% kresoxim-methyl in diet for 24 mo, study duration 24 mo, Tumor Site: Type of Lesion: Liver: hepatocellular carcinoma (1/20, 0/20, 2/20, 6/20, 6/20)): active; positive
carcinogen call (Species: Rat, Strain/Sex: Wistar/Female (50/Group), Route: Oral, 12, 47, 497, 1046 mg/kg/day of 93.7-96.6% kresoxim-methyl in diet for 24 mo, study duration 24 mo, 12, 47, 497, 1046 mg/kg/day of 93.7-96.6% kresoxim-methyl in diet for 24 mo, study duration 24 mo, Tumor Site: Type of Lesion: Liver: hepatocellular carcinoma (1/50, 1/50, 2/50, 13/50, 16/50)): active; positive
carcinogen call (Species: Rat, Strain/Sex: Wistar/Male (20/Group), Route: Oral, 9, 36, 370, 746 mg/kg/day of 93.7-96.6% kresoxim-methyl in diet for 24 mo, study duration 24 mo, 9, 36, 370, 746 mg/kg/day of 93.7-96.6% kresoxim-methyl in diet for 24 mo, study duration 24 mo, Tumor Site: Type of Lesion: Liver: hepatocellular carcinoma (0/20, 1/20, 1/20, 3/20, 8/20)): active; positive
carcinogen call (Species: Rat, Strain/Sex: Wistar/Male (50/Group), Route: Oral, 9, 36, 375, 770 mg/kg/day of 93.7-96.6% kresoxim-methyl in diet for 24 mo, study duration 24 mo, 9, 36, 375, 770 mg/kg/day of 93.7-96.6% kresoxim-methyl in diet for 24 mo, study duration 24 mo, Tumor Site: Type of Lesion: Liver: hepatocellular carcinoma (7/50, 5/50, 2/50, 18/50, 11/50). Spleen: hemangiosarcoma (0/50, 0/50, 2/50, 2/50, 3/50)): active; positive

C[C@]12CC[C@H](O)CC1=CC[C@@H]1[C@@H]2CC[C@]2(C)C(=O)CC[C@@H]12
carcinogen call (Species: FISH, Strain/Sex: RAINBOW TROUT/MALE, FEMALE, Route: ORAL, 55, 111, 222, 444, 888 PPM IN DIET 1/D 5 D/WK FOR 42 WK (STUDY DURATION: 42 WK), 55, 111, 222, 444, 888 PPM IN DIET 1/D 5 D/WK FOR 42 WK (STUDY DURATION: 42 WK), Tumor Site: Type of Lesion: LIVER: TUMOR): active; positive
carcinogen call (Species: FISH, Strain/Sex: RAINBOW TROUT/MALE,FEMALE, Route: ORAL, 55, 111, 222, 444, 888 PPM IN DIET FOR 7 MO (STUDY DURATION: 10 MO), 55, 111, 222, 444, 888 PPM IN DIET FOR 7 MO (STUDY DURATION: 10 MO), Tumor Site: Type of Lesion: LIVER: TUMOR): active; positive
carcinogen call (Species: RAT, Strain/Sex: F344/MALE, Route: ORAL, 0.45% (WEIGHT/WEIGHT) IN SEMIPURIFIED DIET OIL STRIPPED OF VITAMIN E FOR STUDY DURATION, (STUDY DURATION: 84 WK), 0.45% (WEIGHT/WEIGHT) IN SEMIPURIFIED DIET OIL STRIPPED OF VITAMIN E FOR STUDY DURATION, (STUDY DURATION: 84 WK), Tumor Site: Type of Lesion: LIVER: HEPATOCELLULAR CARCINOMA): active; positive
carcinogen call (Species: RAT, Strain/Sex: F344/MALE, Route: ORAL, 0.5, 1% IN DIET FOR 78 WK (STUDY DURATION: 78 WK), 0.5, 1% IN DIET FOR 78 WK (STUDY DURATION: 78 WK), Tumor Site: Type of Lesion: LIVER: NEOPLASM): active; positive

c1ccc(Nc2ccc3ccccc3c2)cc1
carcinogen call (Species: MOUSE, Strain/Sex: B6C3F1/FEMALE, Route: ORAL, 2500, 5000 PPM IN DIET FOR 103 WK (STUDY DURATION: 104 WK), 2500, 5000 PPM IN DIET FOR 103 WK (STUDY DURATION: 104 WK), Tumor Site: Type of Lesion: KIDNEY: RENAL TUBULAR CELL ADENOMA, RENAL TUBULAR CELL ADENOCARCINOMA): equivocal
carcinogen call (Species: MOUSE, Strain/Sex: B6C3F1/MALE, Route: ORAL, 2500, 5000 PPM IN DIET FOR 103 WK (STUDY DURATION: 104 WK), 2500, 5000 PPM IN DIET FOR 103 WK (STUDY DURATION: 104 WK)): inactive; negative
carcinogen call (Species: RAT, Strain/Sex: F344/FEMALE, Route: ORAL, 2500, 5000 PPM IN DIET FOR 103 WK (STUDY DURATION: 104 WK), 2500, 5000 PPM IN DIET FOR 103 WK (STUDY DURATION: 104 WK)): inactive; negative
carcinogen call (Species: RAT, Strain/Sex: F344/MALE, Route: ORAL, 2500, 5000 PPM IN DIET FOR 103 WK (STUDY DURATION: 104 WK), 2500, 5000 PPM IN DIET FOR 103 WK (STUDY DURATION: 104 WK)): inactive; negative
carcinogen call (Species: RAT, Strain/Sex: SPRAGUE-DAWLEY/FEMALE, Route: GAVAGE, 600 MG/KG BW 2/WK FOR DURATION OF STUDY (STUDY DURATION: LIFETIME)): inactive; negative
carcinogen call (Species: RAT, Strain/Sex: SPRAGUE-DAWLEY/MALE, Route: GAVAGE, 600 MG/KG BW 2/WK FOR DURATION OF STUDY (STUDY DURATION: LIFETIME)): inactive; negative

CC(C)(C)NC[C@H](O)COc1cccc2c1CCCC2=O
carcinogen call (Species: MOUSE, Strain/Sex: SWISS/MALE, Route: ORAL, 12, 50, 200 MG/KG/D IN DIET FOR 80 WK (STUDY DURATION: 80 WK), 12, 50, 200 MG/KG/D IN DIET FOR 80 WK (STUDY DURATION: 80 WK)): inactive; negative
carcinogen call (Species: RAT, Strain/Sex: WISTAR/FEMALE, Route: ORAL, 0.5, 2, 5 MG/KG/D IN DIET FOR 2 YR (STUDY DURATION: 2 YR), 0.5, 2, 5 MG/KG/D IN DIET FOR 2 YR (STUDY DURATION: 2 YR)): inactive; negative
carcinogen call (Species: RAT, Strain/Sex: WISTAR/FEMALE, Route: ORAL, 5, 30, 180 MG/KG/D IN DIET FOR 2 YR (STUDY DURATION: 2 YR), 5, 30, 180 MG/KG/D IN DIET FOR 2 YR (STUDY DURATION: 2 YR)): inactive; negative
carcinogen call (Species: RAT, Strain/Sex: WISTAR/MALE, Route: ORAL, 0.5, 2, 5 MG/KG/D IN DIET FOR 2 YR (STUDY DURATION: 2 YR), 0.5, 2, 5 MG/KG/D IN DIET FOR 2 YR (STUDY DURATION: 2 YR)): inactive; negative
carcinogen call (Species: RAT, Strain/Sex: WISTAR/MALE, Route: ORAL, 5, 30, 180 MG/KG/D IN DIET FOR 2 YR (STUDY DURATION: 2 YR), 5, 30, 180 MG/KG/D IN DIET FOR 2 YR (STUDY DURATION: 2 YR), Tumor Site: Type of Lesion: LIVER: HEPATOMA): active; positive
